Assays:
SP9144 [1] = molecular target: T1, SP9144 (Homo sapiens, UniProt Q9H3N8); test: FLIPR intracellular Ca2+ assay, HEK-293-EBNA cells transfected with pCR3.1-SP9144; assay type: cell-based; settings: for rank order of potency for activation of SP9144: transfected HEK-293-EBNA cells; for activation of SP9144 (change in intracellular Ca++, Fluo3 fluorescence): HEK-293-EBNA cells transfected with pCR3.1-SP9144, drugs 1×10^−4 M to 1×10^−9 M
T1 construct: expressed in transfected cells; host or cells: HEK-293-EBNA / HEK-293 cells, transient transfection with pCR3.1-SP9144
Method: (§1) 24 hours after transfection, cells were harvested and plated at 25,000 cells/well in clear bottom, black walled 96 well plates precoated with poly-D-lysine (Beckton-Dickenson) and cultured overnight in DMEM/10% FBS. For the assay, growth media was removed and replaced with 50 μl/well dye loading medium containing DMEM, 10% FBS, 20 mM HEPES pH 7.4, 2.5 mM probenecid (Sigma), […] Fluo3-AM (Sigma) (dissolved in 10% pluronic acid in DMSO). After 1 hr. at 37° C., the cell plates were washed 4 times with 250 μl Hanks Balanced Salt Solution (HBSS) lacking phenol red and containing 20 mM HEPES, 2.5 mM probenecid, and 0.1% BSA (wash buffer). A final volume of 100 μl/well of wash buffer was added to the plates, and the plates were placed into a Fluorescent Imaging Plate Reader (FLIPR, Molecular Devices) equilibrated to 37° C. […] Fluorescence was monitored once per second for 1 minute, and every 6 seconds for 2 minutes thereafter. After a 10 sec baseline measurement was established, drugs at 3× final concentration (1×10^−4 M to 1×10^−9 M) were added in a volume of 50 μl while the fluorescence continued to be monitored. Values extracted for data analysis represented the maximal fluorescence value minus the minimal fluorescence value detected following the drug addition. Drug stock solutions were initially dissolved in water (or DMSO) and diluted to 3× final concentration using wash buffer.

SP9144 [2] = molecular target: T1, SP9144; test: [3H]histamine binding assay (saturation and competition), membranes of HEK-293 cells transfected with SP9144; settings: for rank order of potency for blocking [3H]-histamine binding: competition with 18 nM [3H]histamine, 70 μg membrane protein; for block of [3H]-histamine binding: at concentrations of 10 μM
Method: (§2) Membrane preparation: HEK-293 cells transfected with SP9144 as described above were harvested by incubating in 5 mM EDTA/phosphate-buffered saline followed by repeated pipetting. The cells were centrifuged 5 min at 1000×g. The EDTA/PBS was decanted and an equal volume of ice-cold 50 mM Tris-HCl, pH 7.5, was added and cells were broken up with a Polytron (PT10 tip, setting 5, 30 sec). Nuclei and unbroken cells were sedimented at 1000×g for 10 min and then the supernatant was centrifuged at 50,000×g for 10 min. The supernatant was decanted, the pellet was resuspended by Polytron, a sample was taken for protein assay (bicinchoninic acid, Pierce), and the tissue was again centrifuged at 50,000×g. Pellets were stored frozen at −20° C.
(§3) Samples were filtered on GF/B filters and washed thrice with 2 ml of cold Tris buffer. Filters were dried in a microwave oven, impregnated with Meltilex wax scintillant, and counted at 45% efficiency. […] Curves were fit to the data with Prism (GraphPad Software) nonlinear least-squares curve-fitting program and Ki values were derived from IC50 values according to Cheng and Prusoff (Cheng, Y. C., and Prusoff, W. H. (1973) Relationship between the inhibition constant (Ki) and the concentration of inhibitor which causes 50 per cent inhibition (IC50) of an enzymatic reaction. Biochem. Pharmacol. 22, 3099–3108).

mock transfected cells = system: mock transfected cells
Method: as §1

[3] = system: untransfected HEK-293 cells; test: [3H]histamine binding to membranes from untransfected HEK-293 cells
Method: as §2, §3

T1 sequence (Q9H3N8 whole entry): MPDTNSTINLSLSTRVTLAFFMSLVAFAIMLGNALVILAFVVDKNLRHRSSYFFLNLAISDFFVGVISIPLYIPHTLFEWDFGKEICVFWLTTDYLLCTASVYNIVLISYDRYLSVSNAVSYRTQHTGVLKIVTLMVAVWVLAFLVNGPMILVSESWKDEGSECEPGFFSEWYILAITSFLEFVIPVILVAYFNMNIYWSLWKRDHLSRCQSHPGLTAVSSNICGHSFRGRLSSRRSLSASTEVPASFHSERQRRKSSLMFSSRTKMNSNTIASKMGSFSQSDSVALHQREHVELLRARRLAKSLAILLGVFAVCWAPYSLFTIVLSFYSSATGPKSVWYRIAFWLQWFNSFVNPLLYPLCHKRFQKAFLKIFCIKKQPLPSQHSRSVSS

Compound	rank order of potency for activation of SP9144 (SP9144 [1]; FLIPR Ca++ assay)	activation of SP9144 (change in intracellular Ca++, Fluo3 fluorescence) (SP9144 [1])	rank order of potency for blocking [3H]-histamine binding (SP9144 [2])	further results
N=C(N)SCCc1cnc[nH]1 [imetit]	clobenpropit>imetit>impromidine>buramimide	able to activate SP9144, albeit with reduced efficacy	imetit>clobenpropit>histamine>impromidine>Na-methylhistamine>burimamide>(R)-a-methylhistamine>thioperimide>>(S)-a-methylhistamine	–
CNC[C@H](O)c1ccc(O)c(O)c1 [epinephrine]	–	not by other biogenic amines	–	–
NCCc1c[nH]c2ccc(O)cc12 [serotonin]	–	not by other biogenic amines	–	–
NCCc1ccc(O)c(O)c1 [dopamine]	–	not by other biogenic amines	–	–
NCCc1c[nH]cn1 [histamine]	Histamine>Nα-methylhistamine>(R) α-methylhistamine>>(S)α-methylhistamine (inactive)	specifically activated	imetit>clobenpropit>histamine>impromidine>Na-methylhistamine>burimamide>(R)-a-methylhistamine>thioperimide>>(S)-a-methylhistamine	activation by histamine in mock transfected cells (mock transfected cells): not observed
NC[C@H](O)c1ccc(O)c(O)c1 [nor-epinephrine]	–	not by other biogenic amines	–	–
Cc1nc[nH]c1CSCCN=C(N)NCCCc1cnc[nH]1 [impromidine]	clobenpropit>imetit>impromidine>buramimide	able to activate SP9144, albeit with reduced efficacy	imetit>clobenpropit>histamine>impromidine>Na-methylhistamine>burimamide>(R)-a-methylhistamine>thioperimide>>(S)-a-methylhistamine	–
S=C(NC1CCCCC1)N1CCC(c2cnc[nH]2)CC1 [thioperimide]	–	no activation of SP9144	imetit>clobenpropit>histamine>impromidine>Na-methylhistamine>burimamide>(R)-a-methylhistamine>thioperimide>>(S)-a-methylhistamine	block of the activation of SP9144 by (R)α-methylhistamine (SP9144 [1]; FLIPR Ca++ assay, antagonist mode): could be blocked in a dose dependent manner
CN/C(=N/CCSCc1nc[nH]c1C)NC#N [cimetidine]	–	completely inactive	–	block of [3H]-histamine binding (SP9144 [2]): not able to block
CNC(=S)NCCCCc1cnc[nH]1 [buramimide]	clobenpropit>imetit>impromidine>buramimide	able to activate SP9144, albeit with reduced efficacy	imetit>clobenpropit>histamine>impromidine>Na-methylhistamine>burimamide>(R)-a-methylhistamine>thioperimide>>(S)-a-methylhistamine	–
NCCc1c[nH]cn1 [[^3H]-Histamine]	–	–	–	specific binding of [3H]-histamine to membranes (SP9144 [2]; membranes from HEK-293 cells transfected with SP9144 DNA): bound specifically; specific binding of [3H]-histamine to membranes [3]: not to membranes from untransfected HEK-293 cells
C[C@H](N)Cc1c[nH]cn1 [(S)α-methylhistamine]	Histamine>Nα-methylhistamine>(R) α-methylhistamine>>(S)α-methylhistamine (inactive)	inactive	imetit>clobenpropit>histamine>impromidine>Na-methylhistamine>burimamide>(R)-a-methylhistamine>thioperimide>>(S)-a-methylhistamine	–
CN(C)CCC(c1ccc(Cl)cc1)c1ccccn1 (centres unmarked) [chlorphenirimine]	–	completely inactive	–	block of [3H]-histamine binding (SP9144 [2]): not able to block
CNCCc1c[nH]cn1 [Nα-methylhistamine]	Histamine>Nα-methylhistamine>(R) α-methylhistamine>>(S)α-methylhistamine (inactive)	able to activate SP9144	imetit>clobenpropit>histamine>impromidine>Na-methylhistamine>burimamide>(R)-a-methylhistamine>thioperimide>>(S)-a-methylhistamine	–
NC(=NCc1ccc(Cl)cc1)SCCCc1cnc[nH]1 [clobenpropit]	clobenpropit>imetit>impromidine>buramimide	able to activate SP9144, albeit with reduced efficacy	imetit>clobenpropit>histamine>impromidine>Na-methylhistamine>burimamide>(R)-a-methylhistamine>thioperimide>>(S)-a-methylhistamine	–
C[C@@H](N)Cc1c[nH]cn1 [(R) α-methylhistamine]	Histamine>Nα-methylhistamine>(R) α-methylhistamine>>(S)α-methylhistamine (inactive)	able to activate SP9144	imetit>clobenpropit>histamine>impromidine>Na-methylhistamine>burimamide>(R)-a-methylhistamine>thioperimide>>(S)-a-methylhistamine	–
